One compound from PMC6091245, “Genome-Wide Identification and Expression Analysis of Cutinase Gene Family in Rhizoctonia cerealis and Functional Study of an Active Cutinase RcCUT1 in the Fungal–Wheat Interaction” (Frontiers in Microbiology, 2018) can be followed below.

This test deals with T1, RcCUT1 (MBP-RcCUT1) (Ceratobasidium cereale, UniProt A0A346Q044).
T1 construct: E. coli BL21 (DE3); amylose resin; about 63 kDa on SDS-PAGE
Description: spectrophotometric p-nitrophenol release at […] nm. The test is classed as biochemical. As to conditions: 1 mM substrate; 20 mM Tris-HCl, 10 mM NaCl, 50 mM sodium taurodeoxycholate, pH 8.0, 20 °C; MBP-tag alone inactive.

T1 sequence (A0A346Q044 entry or part of it): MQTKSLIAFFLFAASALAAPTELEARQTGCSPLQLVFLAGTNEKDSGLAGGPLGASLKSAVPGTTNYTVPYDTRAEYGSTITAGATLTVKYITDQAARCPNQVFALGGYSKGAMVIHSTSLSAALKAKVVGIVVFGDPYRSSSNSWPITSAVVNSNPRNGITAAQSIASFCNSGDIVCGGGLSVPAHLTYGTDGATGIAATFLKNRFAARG

Regarding `CCCC(=O)Oc1ccc([N+](=O)[O-])cc1` [p-nitrophenyl butyrate], the “spectrophotometric p-nitrophenol release at 405 nm” value is “the purified MBP-RcCUT1 had the enzymatic activity for hydrolyzing pNPB substrate”.
